14 compounds from PubChem BioAssay (NCI) can be followed below.

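Cells were grown in 96-well plates and exposed to each compound for 48 hours at five concentrations; endpoints were interpolated linearly between bracketing concentrations, or set to the highest concentration if not reached. The concentration for 50% growth inhibition is given as GI50. TGI denotes the concentration required for complete inhibition of growth.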 Where only a bound is given, the exact number is not on record here.

What all share (test): NCI tumour cell line growth inhibition, 48 h
Experiment [1] concerns RXF-631 renal.
Experiment [2] concerns NCI-H226 lung.
The test system of experiment [3] is SNB-78 CNS.
In experiment [4] the test system is HOP-18 NSCLC.
The subject of experiment [5] is DMS 273 small cell lung.
In experiment [6] the test system is M19-MEL melanoma.
For experiment [7], the system named is RXF 393 renal.
Experiment [8] has as its system PC-3 prostate.
Experiment [9] deals with DLD-1 colon.
Experiment [10] concerns HCC-2998 colon.
Experiment [11] relates to A549 NSCLC.
The subject of experiment [12] is HS 578T breast.
Experiment [13] concerns MDA-N.
Experiment [14] deals with T-47D breast.
In experiment [15] the test system is 786-0 renal.
The test system of experiment [16] is P388/ADR leukemia.
In experiment [17] the test system is P388 leukemia.
For experiment [18], the system named is SN12K1 renal.

Consider `O=S(=O)(CF)OCCCCOS(=O)(=O)CF`, for which the TGI in [1], in experiment [2], in experiment [3], in experiment [4], in experiment [5] and in experiment [6] was more than 100 µM each time.
Turning to `Clc1ccc(N2N=C(c3cccc(Nc4ccncc4)c3)CC2c2ccc(Br)cc2)cc1` (stereo not drawn), in [7], the GI50 was 1.62 µM and the TGI turned out to be 3.02 µM. Also, in [8], the GI50 is 1.57 µM and the TGI turned out to be 3.19 µM.
For `Cn1c(=O)[nH]c2c(c1=O)C(=O)CN2`, the TGI in experiment [7], in experiment [9], in [10], in experiment [11], in experiment [2] and in experiment [3] was more than 100 µM throughout. The TGI in [4], in experiment [5] and in [6] was more than 100 µM each time.
Turning to `N#CCCN(CCC#N)c1ccc(/C=C(/NC(=O)Nc2ccccc2Cl)NC(=O)c2cc([N+](=O)[O-])ccc2Cl)cc1`, the TGI in experiment [7], in experiment [9], in [1], in [10], in experiment [11] and in [2] was more than 100 µM in each case. The TGI in [3], in experiment [4], in [5] and in experiment [6] was more than 100 µM throughout.
Turning to `CCOC(=O)c1ccc(N(CCOS(=O)(=O)c2ccc(C)cc2)CCOS(=O)(=O)c2ccc(C)cc2)cc1`, the TGI in experiment [7] is more than 100 µM; in experiment [10], more than 100 µM; in experiment [8] it was 75 µM; in experiment [12], more than 100 µM; in [11], more than 100 µM; in experiment [13] it was more than 100 µM.
Turning to `C[Si](C)(C)/C=C/CN1C(=O)CCC1=O`, the TGI in [9], in experiment [10], in [11], in experiment [3], in [4] and in experiment [5] was more than 100 µM each time. Further, in [6], the TGI was more than 100 µM.
As for `O=C(NCCN(CCNC(=O)c1cccc(=O)n1O)CCNC(=O)c1cccc(=O)n1O)c1cccc(=O)n1O`, the TGI in experiment [7], in experiment [10], in experiment [8], in experiment [12], in experiment [11] and in [2] was more than 100 µM throughout. The TGI in experiment [14] and in experiment [13] was more than 100 µM each time.
With `Cc1ccc(CN2CCN(Cc3ccc(C)o3)C(C)C2)o1` (stereo not drawn), the TGI in experiment [7], in [10], in experiment [8], in [12], in experiment [11] and in [2] was more than 100 µM in each case. Moreover, the TGI in [14], in experiment [13] and in experiment [15] was more than 100 µM each time.
In the case of `COC(=O)C(=O)C(C(C)=O)C(=O)C(=O)Nc1ccc(C)cc1C` (stereo not drawn), the TGI in experiment [7], in [9], in experiment [10], in experiment [11], in [2] and in experiment [5] was more than 100 µM throughout. In [6], this compound yielded a TGI of more than 100 µM.
In the case of `COc1ccc(NC(/C(C(=O)C(=O)/C=C(\O)c2ccccc2)=C(\O)c2ccccc2)c2ccc(OC)cc2)cc1` (stereo not drawn), the TGI in experiment [7] is more than 100 µM; in experiment [10] it was 62.3 µM; in experiment [8], more than 100 µM; in experiment [12], more than 100 µM; in experiment [11] it was more than 100 µM; in [2], more than 100 µM. Further, the TGI in experiment [14] is 81.4 µM; in [15], more than 100 µM.
Take `COc1ccc(N[C@@H]2c3cc4c(cc3C(c3cc(OC)c(O)c(OC)c3)[C@H]3C(=O)OCC32)OCO4)cc1OC` (stereo partly drawn): the TGI in experiment [7] was more than 26.9 µM; in experiment [9], more than 25.7 µM; in experiment [16], 10.3 µM; in experiment [17], 10.9 µM; in [18] it was more than 34.8 µM; in experiment [4] it was more than 64.2 µM. Further, the TGI in experiment [5] and in experiment [6] was more than 100 µM in each case.
In the case of `COc1cc(C(=O)OC2CC34CCNC35CC(OC5(OC)C2O)c2cc3c(cc24)OCO3)ccc1O` (stereo not drawn), the TGI in experiment [7], in [10], in experiment [8], in [12], in experiment [11] and in experiment [2] was more than 100 µM each time. In addition, the TGI in [14], in [13] and in [15] was more than 100 µM throughout.
As for `CC(=O)c1cccc(Nc2nc3ccccc3c3[nH]c4ccccc4c23)c1`, the TGI in [8] is 40.9 µM; in [12], more than 100 µM; in experiment [11] it was 15.3 µM; in experiment [14] it was 33.5 µM; in [13], more than 100 µM; in [15] it was 11.7 µM.
As for `CCCCCC(/C=C/c1ncccc1OCCCCCC(=O)O)=N\NC1=NCCN1`, the TGI in experiment [7], in experiment [10], in [11], in [2], in experiment [5] and in experiment [6] was more than 100 µM throughout.
